Where “and” joins values, the source holds several entries; their conditions need not be identical. Equal entries are not always repeated. Where two headings read alike, the source gives them in different places.
Experiments:
[1] = molecular target: T. vaginalis nucleoside transporters, Adenosine (HA); experiment: High affinity [3H]-adenosine transport in T. vaginalis trophozoites; type: cell-based, Trichomonas vaginalis
[2] = system: T. vaginalis nucleoside transporters, Inosine (LA); experiment: Low affinity [3H]-inosine transport in T. vaginalis trophozoites; type: cell-based, Trichomonas vaginalis; details: for Km: read-out: Km,app; for Ki: read-out: Ki,app
[3] = molecular target: T. vaginalis nucleoside transporters, Uridine (HA); experiment: [3H]-uridine transport in T. vaginalis trophozoites; type: cell-based, Trichomonas vaginalis; details: for Km: read-out: Km,app, Uridine (HA)
[4] = system: low affinity pyrimidine nucleobase transporter of T. vaginalis; experiment: [3H]-uracil transport in T. vaginalis trophozoites; type: cell-based, Trichomonas vaginalis; details: for Ki: read-out: Ki,app
TvagENT6 [5] = molecular target: T1, TvagENT6 (Trichomonas vaginalis, UniProt A2EMT5); experiment: cell-based
TvagENT3 = TvagENT3 (Trichomonas vaginalis, UniProt A2E5Q3); experiment: [3H]-cytidine uptake by T. brucei TbAT1-KO cells expressing TvagENT3; details: for inhibition of cytidine uptake: 0.5 µM [3H]-cytidine
[6] = system: Nc1ccn([C@@H]2O[C@H](CO)[C@@H](O)[C@H]2O)c(=O)n1; experiment: cells, lysate or membranes
T. vaginalis = details: cited from earlier work
[7] = system: T. vaginalis nucleoside transporters, Thymidine (HA); experiment: Higher affinity [3H]-thymidine transport; type: cell-based, Trichomonas vaginalis; details: for EC50: single experiment
[8] = system: T. vaginalis nucleoside transporters, Adenosine (LA); experiment: Low affinity adenosine transport; type: cell-based, Trichomonas vaginalis; details: for inhibition of transport: 20 µM [3H]-adenosine, highest tested concentration: guanosine 250 µM, adenine 1 mM, hypoxanthine 1 mM, uracil 10 mM; for Ki: read-out: Ki,app, average and SEM; for Ki / EC50: inhibition of 20 µM [3H]-adenosine transport; for EC50: single experiment, Fig. 4
[9] = system: T. vaginalis adenine transporter; experiment: [3H]-adenine transport in T. vaginalis trophozoites; type: cell-based, Trichomonas vaginalis; details: for Km: read-out: Km,app
TvagENT6 [10] = molecular target: T1, TvagENT6
[11] = molecular target: T. vaginalis nucleoside transporters, Guanosine (HA); experiment: [3H]-guanosine transport in T. vaginalis trophozoites; type: cell-based, Trichomonas vaginalis; details: for Ki: read-out: Ki,app, inhibition of [3H]-guanosine transport, monophasic sigmoid curve
[12] = system: T. vaginalis nucleoside transporters, Cytidine (HA); experiment: High affinity [3H]-cytidine transport in T. vaginalis trophozoites; type: cell-based, Trichomonas vaginalis; details: for Km: read-out: Km,app, […] [3H]-cytidine; for Ki: read-out: Ki,app, inhibition of […] [3H]-cytidine transport, 30 s
[13] = system: T. vaginalis nucleoside transporters, Cytidine (LA); experiment: Low affinity cytidine transport in T. vaginalis trophozoites; type: cell-based, Trichomonas vaginalis; details: Cytidine (LA); average and SEM
[14] = system: T. vaginalis nucleoside transporters; details: ref Harris et al., 1988; cited from earlier work
[15] = system: T. vaginalis trophozoites; experiment: Preliminary uptake of cytosine and thymine by T. vaginalis trophozoites; type: cell-based, Trichomonas vaginalis; details: preliminary experiments
[16] = read-out: Ki,app, low affinity component
[17] = read-out: Ki,app, inhibition of […] [3H]-adenosine transport, 30 s, monophasic, average and SEM
[18] = single experiment, Fig. 6E inset
[19] = inhibition of 1 µM [3H]-inosine uptake, average and SEM
[20] = inhibition of 0.125 µM [3H]-thymidine uptake, Fig. 3C/D
[21] = inhibition of 0.5 µM [3H]-uracil uptake

O=c1[nH]cnc2c1ncn2[C@@H]1O[C@H](CO)[C@@H](O)[C@H]1O [inosine]
Ki [1, 16]: 347 ± 127 µM
rate of uptake ([2]; 1 µM [3H]-inosine): 0.0081 ± 0.0002 pmol(10^7 cells)^−1s^−1
inhibition of uptake ([2]; 1 µM [3H]-inosine time course, 1 mM unlabelled nucleoside): 88%
rate of uptake ([2]; 1 µM [3H]-inosine, listed as Inosine): 0.0081 pmol(10^7 cells)^−1s^−1
Vmax ([2]; Inosine (LA), average and SEM): 2.25 ± 0.37 pmol(10^7 cells)^−1s^−1
EC50 ([2]; inhibition of 1 µM [3H]-inosine uptake, single experiment, Fig. 5B): 67.1 µM
Km ([2]; Inosine (LA), 1 µM [3H]-inosine, average and SEM): 196 ± 18 µM
Km ([2]; single experiment, Fig. 5B inset): 157 µM
Ki [3, 16]: 231 ± 23 µM
inhibition of uracil transport ([4]; uridine, thymidine up to 10 mM, adenosine, inosine up to 1 mM): unable to inhibit
Ki (TvagENT6 [5]): 40 ± 9.5 µM
Hill slope (TvagENT3): −1.08 ± 0.02
inhibition of cytidine uptake (TvagENT3; inhibitor at 400 µM): completely
Hill slope (TvagENT3; single experiment, Fig. 10D-F): −1.07

TvagENT3 (Trichomonas vaginalis G3)
Km ([6]; other: 0.5 µM [3H]-cytidine, TvagENT3 in T. brucei TbAT1-KO, average): 10.2 ± 2.6 µM
Km ([6]; other: single experiment, Fig. 10D inset): 10.9 µM

Nc1ncnc2c1ncn2[C@@H]1O[C@H](CO)[C@@H](O)[C@@H]1O [adenine arabinoside]
antitrichomonal activity (T. vaginalis; ref Shokar et al., 2012): strong antitrichomonal activity

Nc1ncnc2c1ncn2[C@@H]1O[C@H](CO)[C@@H](O)[C@@H]1F [2′-F,2′-deoxyarabinoadenosine]
antitrichomonal activity (T. vaginalis; ref Shokar et al., 2012): strong antitrichomonal activity

Nc1ncnc2nc[nH]c12 [adenine]
Ki ([1]; read-out: Ki,app, inhibition of […] [3H]-adenosine transport): > 1000 µM
Ki [1, 17]: ~1000 µM
inhibition of transport ([7]; 125 nM [3H]-thymidine, nucleobase at 1 mM): ≤ 50%
inhibition of transport [8]: ≤ 50%
Ki [8]: > 1000 µM
EC50 [9]: 0.35 µM
rate of transport ([9]; 50 nM [3H]-adenine): 0.00073 pmol(10^7 cells)^−1s^−1
rate of transport in the presence of unlabelled permeant ([9]; 50 nM [3H]-adenine + 1 mM unlabelled adenine): 0.000097 pmol(10^7 cells)^−1s^−1
inhibition of uptake ([9]; 50 nM [3H]-adenine by 1 mM unlabelled adenine): 86.7%
Vmax ([9]; 50 nM [3H]-adenine, average): 0.091 ± 0.027 pmol(10^7 cells)^−1s^−1
rate of transport ([9]; 1 µM [3H]-adenine): 0.0164 pmol(10^7 cells)^−1s^−1 and 0.016 pmol(10^7 cells)^−1s^−1
rate of transport in the presence of unlabelled permeant ([9]; 1 µM [3H]-adenine + 1 mM unlabelled adenine): 0.00429 pmol(10^7 cells)^−1s^−1
inhibition of uptake ([9]; 1 µM [3H]-adenine by 1 mM unlabelled adenine): 73.8%
EC50 ([9]; inhibition of [3H]-adenine uptake, single experiment, Fig. 6E): 0.27 µM
EC50 ([9]; read-out: EC50, high affinity component, two transporter model, Fig. 6F): 0.23 µM
EC50 ([9]; read-out: EC50, lower affinity component, two transporter model, Fig. 6F, large degree of uncertainty): 17 µM
Km ([9]; 50 nM [3H]-adenine, high-affinity system, average): 0.41 ± 0.097 µM
Km [9, 18]: 0.23 µM
Vmax [9, 18]: 0.155 pmol(10^7 cells)^−1s^−1
share of flux of high affinity component ([9]; two transporter model, Fig. 6F): 81%
inhibition of transporter (TvagENT6 [10]; adenine up to 1 mM): not significantly inhibited

2’F,2’-deoxyadenosine
antitrichomonal activity (T. vaginalis; ref Shokar et al., 2012): strong antitrichomonal activity
Hill slope (TvagENT3): −0.97± 0.15
Ki (TvagENT3; read-out: Ki,app): 1.11 ± 0.38 µM

Nc1ccn([C@@H]2O[C@H](CO)[C@@H](O)[C@H]2O)c(=O)n1 [cytidine]
Ki [1, 17]: 17.9 ± 4.4 µM
Ki ([11]; average and SEM): 18.6 ± 0.9 µM
Ki ([3]; read-out: Ki,app, inhibition of 0.5 µM [3H]-uridine transport, 30 s, average and SEM): 15.6 ± 2.3 µM
inhibition of uptake ([12]; 0.25 µM [3H]-cytidine by 1 mM unlabelled cytidine): 97.0%
rate of transport ([12]; 0.25 µM [3H]-cytidine, no inhibitor): 0.026 ± 0.001 pmol(10^7 cells)^−1s^−1
Vmax ([12]; Cytidine (HA), average and SEM): 0.83 ± 0.06 pmol(10^7 cells)^−1s^−1
Km ([12]; Cytidine (HA), average and SEM): 7.19 ± 1.77 µM
Km ([12]; Cytidine (HA), average and SEM, listed as Cytidine): 7.2 ± 1.8 µM
EC50 ([7]; read-out: EC50, higher affinity component, 0.125 µM [3H]-thymidine, 2-transporter plot, Fig. 3D): 2.86 µM
EC50 ([7]; read-out: EC50, lower affinity component, 0.125 µM [3H]-thymidine, 2-transporter plot, Fig. 3D): 322 µM
EC50 [8]: 290 µM
Ki [8]: 116 ± 5 µM
Vmax [13]: 6.7 ± 1.8 pmol(10^7 cells)^−1s^−1
inhibition of cytidine uptake (TvagENT3; 1 mM unlabelled cytidine): strongly inhibited
Vmax (TvagENT3; single experiment, Fig. 10D inset): 0.042 pmol(10^7 cells)^−1s^−1
Hill slope (TvagENT3; single experiment, Fig. 10D-F): −0.99

O=c1ccn([C@@H]2O[C@H](CO)[C@@H](O)[C@H]2O)c(=O)[nH]1 [uridine]
Ki [1, 17]: 3.7 ± 1 µM
Ki ([11]; average and SEM): 7.8 ± 1.3 µM
Ki [2, 19]: 3.6 ± 1.1 µM
Km ([3]; 30 s, average and SEM): 5.49 ± 1.8 µM
Km ([3]; 30 s, average and SEM, listed as Uridine): 5.5 ± 1.8 µM
Ki ([12]; average and SEM): 1.98 ± 0.5 µM
Ki ([12]; average and SEM, listed as Uridine): 2 ± 0.5 µM
EC50 [7, 20]: 15.3 µM
EC50 [8]: 519 µM
Ki [8]: 376 ± 63 µM
Vmax (TvagENT6 [10]; [3H]-uridine in the presence of 250 µM uracil, average): 0.092 ± 0.021 pmol(10^7 cells)^−1s^−1
Km [14]: 2.5 µM
Ki (TvagENT3): 11.3 ± 1.8 µM
inhibition of cytidine uptake (TvagENT3; inhibitor at 400 µM): completely
Hill slope (TvagENT3; inhibition of 0.5 µM [3H]-cytidine transport by TvagENT3, average): −0.98 ± 0.08
Hill slope (TvagENT3; single experiment, Fig. 10D-F): −0.93

Nc1ncnc2c([C@@H]3O[C@H](CO)[C@@H](O)[C@H]3O)[nH]nc12 [formycin A]
antitrichomonal activity (T. vaginalis; ref Munagala and Wang, 2003): strong antitrichomonal activity

Cc1c[nH]c(=O)[nH]c1=O [thymine]
Ki [4, 21]: 57 ± 8 µM
saturable uptake ([15]; thymine 0.5 µM over 120 s): not significant

O=c1[nH]cc(F)c(=O)[nH]1 [5F-uracil]
Ki [4]: 265 ± 57 µM

Nc1cc[nH]c(=O)n1 [cytosine]
Ki [4, 21]: 334 ± 73 µM
saturable uptake ([15]; cytosine 0.25 µM over 120 s): not significant

Nc1nc2c(ncn2[C@@H]2O[C@H](CO)[C@@H](O)[C@H]2O)c(=O)[nH]1 [guanosine]
Ki [1, 17]: 12.2 ± 2.4 µM
rate of transport ([11]; 1 µM [3H]-guanosine): 0.22 ± 0.01 pmol(10^7 cells)^−1s^−1
rate of transport in the presence of unlabelled permeant ([11]; 1 µM [3H]-guanosine + 0.25 mM unlabelled guanosine): 0.0030 ± 0.0004 pmol(10^7 cells)^−1s^−1
reduction of uptake ([11]; 1 µM [3H]-guanosine by 250 µM guanosine): 98.6%
Vmax ([11]; Guanosine (HA), average and SEM): 0.91 ± 0.25 pmol(10^7 cells)^−1s^−1
Km ([11]; read-out: Km,app, Guanosine (HA), average and SEM): 9 ± 0.6 µM
Ki [2, 19]: 7.41 ± 2.92 µM
Ki ([2]; inhibition of 1 µM [3H]-inosine uptake, average and SEM, listed as Guanosine): 7.4 ± 2.9 µM
Ki ([12]; average and SEM): 16.7 ± 2.6 µM
EC50 [7, 20]: 51.2 µM
inhibition of transport [8]: ≤ 50%
Ki [8]: > 250 µM
Km [14]: 13.9 µM
Hill slope (TvagENT3): −1.33 ± 0.09
Ki (TvagENT3): 2.9 ± 0.14 µM

From PMC8688338 (Molecular microbiology, 2021)
